From patent US10266526B2, “Substituted 1,2,3-triazoles as SMYD inhibitors for treating cancer” (EPIZYME, INC., priority 2014, dated 2019)
Counter-ions that a name gives are not always drawn.

Columns and labels:
SMYD3 [1] = biological target: T1, SMYD3 (Homo sapiens (Human), UniProt Q9H7B4); assay: SMYD3 biochemical assay (SMYD3 enzyme assay on MEKK2 protein substrate, 3H-SAM scintillation proximity assay); conditions: read-out: SMYD3 Biochem IC50
Procedure, shortened: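 Detection used scintillation proximity beads to capture ³H-methylated GST-MEKK2 after quench with 100 uM final cold SAM. The reaction was started by SAM/MEKK2 addition after a 30 min RT compound–enzyme preincubation. Enzyme was tag-free full-length human SMYD3 from E. coli, in buffer of 25 mM Tris-Cl pH 8.0, 1 mM TCEP, 0.005% BSG, 0.005% Tween 20.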

SMYD3 [2] = biological target: T1, SMYD3; assay: SMYD3 cell assay (Trimethyl-MEKK2 In-Cell Western in 293T/17 cells transfected with MEKK2-flag and SMYD3); format: cell-based; conditions: Table 3A; average of n = 1 to n = 50; read-out: SMYD3 cell IC50
Procedure, shortened: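 Methanol-fixed cells stained in-cell Western for trimethyl-MEKK2 and anti-flag. Ratio-based % inhibition against DMSO and background controls; IC50 by non-linear regression, triplicate wells.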

[3] = test system: esophageal, liver and breast cancer cell lines; conditions: several esophageal, dose-dependent; cited from earlier work
[4] = Table 3A, average of n = 1 to n = 50

T1 sequence (Q9H7B4 whole entry): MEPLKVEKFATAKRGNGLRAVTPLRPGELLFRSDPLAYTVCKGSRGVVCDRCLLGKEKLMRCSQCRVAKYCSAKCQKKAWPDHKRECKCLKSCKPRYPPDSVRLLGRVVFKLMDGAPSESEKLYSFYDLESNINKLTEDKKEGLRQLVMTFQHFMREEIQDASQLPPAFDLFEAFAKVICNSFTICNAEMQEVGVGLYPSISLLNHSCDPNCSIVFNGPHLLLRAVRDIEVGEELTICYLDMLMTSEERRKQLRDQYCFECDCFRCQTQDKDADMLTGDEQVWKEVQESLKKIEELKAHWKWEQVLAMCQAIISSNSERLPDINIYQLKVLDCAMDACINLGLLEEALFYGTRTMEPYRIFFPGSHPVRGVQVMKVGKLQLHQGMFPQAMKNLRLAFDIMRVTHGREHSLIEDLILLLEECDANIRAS

Row | SMILES | IC50 (SMYD3 [1]; [4]) [µM] | IC50 (SMYD3 [2]) [µM] | IC50 (SMYD3 [1]) [µM] | proliferation of cancer cell lines [3]
1 | O=C1Cc2cc(C(=O)N[C@H]3C[C@H]4CC[C@@H](C3)N4S(=O)(=O)CC3CCN(CCCO)CC3)c(Cl)cc2N1 [compound 585, 6-chloro-N-((1R,3r,5S)-8-(((1-(3-hydroxypropyl)piperidin-4-yl)methyl)sulfonyl)-8-azabicyclo[3.2.1]octan-3-yl)-2-oxoindoline-5-carboxamide] | 0.00173 | 0.764 |  | 
2 | CN1C(=O)Cc2cc(C(=O)N[C@H]3C[C@H]4CC[C@@H](C3)N4S(=O)(=O)N3CCC(N)CC3)c(Cl)cc21 [compound 604, N-((1R,3r,5S)-8-((4-aminopiperidin-1-yl)sulfonyl)-8-azabicyclo[3.2.1]octan-3-yl)-6-chloro-1-methyl-2-oxoindoline-5-carboxamide] | 0.0135 | 0.207 |  | 
3 | CCc1cnnc(C(=O)N[C@H]2C[C@H]3CC[C@@H](C2)N3S(=O)(=O)N2CCC(N)CC2)c1 [compound 616, N-[(1R,3r,5S)-8-(4-aminopiperidine-1-sulfonyl)-8-azabicyclo[3.2.1]octan-3-yl]-5-ethylpyridazine-3-carboxamide Trifluoroacetate] |  | 0.54 | 0.0499 | 
4 | NC1CCN(S(=O)(=O)N2[C@@H]3CC[C@H]2C[C@@H](NC(=O)c2cnn(C4CC4)c2)C3)CC1 [compound 637, N-((1R,3r,5S)-8-((4-aminopiperidin-1-yl)sulfonyl)-8-azabicyclo[3.2.1]octan-3-yl)-1-cyclopropyl-1H-pyrazole-4-carboxamide] | 0.839 | ≥ 10 |  | 
5 | CCc1cc(C(=O)N[C@@H]2CCN(S(=O)(=O)N3CCC(N)CC3)[C@@H](C)C2)ns1 [compound 629, N-((2S,4R)-1-(4-aminopiperidin-1-ylsulfonyl)-2-methylpiperidin-4-yl)-5-ethyl-1,2-thiazole-3-carboxamide] | 0.326 | 2.08 |  | 
6 | O=C1Cc2cc(C(=O)NC3CCN(S(=O)(=O)CC4CCNCC4)CC3)ccc2N1 [compound 620, 2-oxo-N-[1-[(piperidin-4-ylmethane)sulfonyl]piperidin-4-yl]-2,3-dihydro-1H-indole-5-carboxamide Trifluoroacetate] | 0.0682 | ≥ 10 |  | 
7 | CNC1CCN(S(=O)(=O)N2[C@@H]3CC[C@H]2C[C@@H](NC(=O)c2ccc4c(c2)CC(=O)N4)C3)CC1 [compound 589, N-((1R,3r,5S)-8-((4-(methylamino)piperidin-1-yl)sulfonyl)-8-azabicyclo[3.2.1]octan-3-yl)-2-oxoindoline-5-carboxamide] | 0.00213 | 0.987 |  | 
8 | C[C@@H]1CN(S(=O)(=O)N2CCC(N)CC2)CC[C@@H]1NC(=O)c1cc2c(cc1Cl)NC(=O)C2 [compound 634, N-((3R,4S)-1-((4-aminopiperidin-1-yl)sulfonyl)-3-methylpiperidin-4-yl)-6-chloro-2-oxoindoline-5-carboxamide] | 0.529 | 0.972 |  | 
9 | O=C(N[C@H]1C[C@H]2CC[C@@H](C1)N2S(=O)(=O)CC1CCNCC1)c1ccc2[nH]c(=O)oc2c1 [Cpd. No. 601, 2-oxo-N-((1R,3r,5SR)-8-(piperidin-4-ylmethylsulfonyl)-8-aza-bicyclo[3.2.1]octan-3-yl)-2,3-dihydrobenzo[d]oxazole-6-carboxamide Hydrochloride] | 0.00521 | 4.54 |  | 
10 | O=C(N[C@H]1C[C@H]2CC[C@@H](C1)N2S(=O)(=O)CC1CCNCC1)c1ccc2c(c1)OC(F)(F)O2 [compound 628, 2,2-difluoro-N-((1R,3r,5S)-8-((piperidin-4-ylmethyl)sulfonyl)-8-azabicyclo[3.2.1]octan-3-yl)benzo[d][1,3]dioxole-5-carboxamide] | 0.232 | 3.62 |  | 
11 | CCc1cc(C(=O)N[C@H]2C[C@H]3CC[C@@H](C2)N3S(=O)(=O)N2CCC(N)CC2)ns1 [Cpd. No. 610, N-[(1R,3r,5S)-8-(4-aminopiperidine-1-sulfonyl)-8-azabicyclo[3.2.1]octan-3-yl]-5-ethyl-1,2-thiazole-3-carboxamide Hydrochloride] | 0.0238 | 0.216 |  | 
12 | Cc1cn(CCN2CCN(c3ccccc3-c3cc(C#N)cc(C(=O)NCCCN4CCCC4)c3)CC2)c2ccccc12 [LLY-507] |  |  |  | inhibited the proliferation
13 | NC1CCN(S(=O)(=O)N2[C@@H]3CC[C@H]2C[C@@H](NC(=O)c2ccc4c(c2)OC(F)(F)O4)C3)CC1 [compound 626, N-((1R,3r,5S)-8-((4-aminopiperidin-1-yl)sulfonyl)-8-azabicyclo[3.2.1]octan-3-yl)-2,2-difluorobenzo[d][1,3]dioxole-5-carboxamide] | 0.222 | 2.97 |  | 
14 | O=C1Cc2cc(C(=O)N[C@H]3C[C@H]4CC[C@@H](C3)N4S(=O)(=O)N3CCC(NCc4ccccc4)CC3)ccc2N1 [Cpd. No. 587, N-[(1R,3r,5S)-8-[4-(benzylamino)piperidine-1-sulfonyl]-8-azabicyclo[3.2.1]octan-3-yl]-2-oxo-2,3-dihydro-1H-indole-5-carboxamide] | 0.00198 | 0.071 |  | 
15 | CCc1cnnc(C(=O)N[C@H]2CCN(S(=O)(=O)N3CCC(N)CC3)[C@@H](C)C2)c1 [compound 619, N-((2S,4S)-1-((4-aminopiperidin-1-yl)sulfonyl)-2-methylpiperidin-4-yl)-5-ethylpyridazine-3-carboxamide] | 0.0596 | 0.468 |  | 
16 | CN(C)C1CCN(S(=O)(=O)N2[C@@H]3CC[C@H]2C[C@@H](NC(=O)c2ccc4c(c2)CC(=O)N4)C3)CC1 [compound 593, N-((1R,3r,5S)-8-((4-(dimethylamino)piperidin-1-yl)sulfonyl)-8-azabicyclo[3.2.1]octan-3-yl)-2-oxoindoline-5-carboxamide] | 0.00289 | 0.5 |  | 
17 | O=C(N[C@H]1C[C@H]2CC[C@@H](C1)N2S(=O)(=O)[C@H]1CC[C@H](NCc2ccccc2)CC1)c1ccc2c(c1)OC(F)(F)O2 [compound 627, N-((1R,3R,5S)-8-(((1r,4R)-4-(benzylamino)cyclohexyl)sulfonyl)-8-azabicyclo[3.2.1]octan-3-yl)-2,2-difluorobenzo[d][1,3]dioxole-5-carboxamide] | 0.225 | 1.54 |  | 
18 | NCCCS(=O)(=O)N1CCC(NC(=O)c2cc3c(cc2Cl)NC(=O)C3)CC1 [compound 621, N-(1-((3-aminopropyl)sulfonyl)piperidin-4-yl)-6-chloro-2-oxoindoline-5-carboxamide] | 0.0775 | 6.84 |  | 
19 | NCCCS(=O)(=O)N1CCC(NC(=O)c2ccc3c(c2)CC(=O)N3)CC1 [compound 624, N-(1-((3-aminopropyl)sulfonyl)piperidin-4-yl)-2-oxoindoline-5-carboxamide] | 0.159 | ≥ 10 |  | 
20 | C[C@H]1C[C@@H](NC(=O)c2nnc(C3CC3)s2)CCN1S(=O)(=O)N1CCC(N)CC1 [compound 607, N-((2S,4S)-1-((4-aminopiperidin-1-yl)sulfonyl)-2-methylpiperidin-4-yl)-5-cyclopropyl-1,3,4-thiadiazole-2-carboxamide] | 0.0181 | 0.205 |  | 
21 | C[C@@H]1CN(S(=O)(=O)N2CCC(N)CC2)CC[C@H]1NC(=O)c1cc2c(cc1Cl)NC(=O)C2 [compound 608, N-((3R,4R)-1-((4-aminopiperidin-1-yl)sulfonyl)-3-methylpiperidin-4-yl)-6-chloro-2-oxoindoline-5-carboxamide] | 0.0214 | 6.24 |  | 
